From patent US20240025899A1, “TRIHETEROCYCLIC DERIVATIVE, AND PHARMACEUTICAL COMPOSITION AND APPLICATION THEREOF” (SHANGHAI DE NOVO PHARMATECH CO., LTD., priority 2020, published 2024)
Where a name gives a salt, the structure may show the parent alone. Read-outs that look alike come from different tables or passages of the source.

Experiments:
ATR/ATRIP kinase = ATR/ATRIP kinase (Homo sapiens (Human), UniProt Q13535); assay: ATR enzyme assay (HTRF, phosphorylation of substrate protein P53); type: biochemical; settings: substrate P53, TR-FRET
Protocol: In this experiment, the phosphorylation level of substrate protein P53 (Eurofins, 14-952) was detected by HTRF technology to measure the activity of ATR/ATRIP (Eurofins, 14-953) kinase. Reaction buffer (25 mM HEPES pH 8.0, 0.01% Brij-35, 1% Glycerol, 5 mM DTT, 1 mg/mL BSA), termination buffer (12.5 mM HEPES pH 8.0, 0.005% Brij-35, 0.5% Glycerol, 250 mM EDTA) and assay buffer (50 mM HEPES pH 7.0, 150 mM NaCl, 267 mM KF, 0.1% sodium cholate, 0.01% Tween 20) were prepared in advance. ATR/ATRIP was diluted with reaction buffer to a working solution of 2 ng/μL, and the substrate protein P53 was diluted with reaction buffer to a working solution of 80 nM, and 4 nM of ATP (Sigma, A2383) working solution (containing 40 mM MnCl2) was prepared with reaction buffer. The compound was 3-fold diluted with DMSO, then diluted with reaction buffer into a working solution, then added to a 384-well plate at 2.5 μL/well, and centrifuged at 1500 rpm for 40 s. Then 2.5 μL of ATR/ATRIP working solution, P53 working solution and ATP working solution were added into the 384-well plate, centrifuged at 1500 rpm for 40 s and reacted at room temperature for 30 minutes. After the reaction was completed, 5 μL of termination buffer was added to each well, and centrifuged at 1500 rpm for 40 s. Antibody working solution containing 0.083 μg/mL anti-phospho-p53 (Ser15)-K (CisBio, cat. 61P08KAE) and 5 μg/mL anti-GST-d2 (CisBio, cat. 61GSTDLA) was prepared with assay buffer and added to the 384-well plate at 5 μL/well, then centrifuged at 1500 rpm for 40 s and reacted overnight at room temperature. Microplate reader (Tecan, Infinite M1000 Pro) was used to detect TR-FRET, and the data were analyzed with Graphpad software, and the four-parameter equation was used to fit the curve and calculate the IC50 value of the inhibitor (Table 1).

CYP2C19 = CYP2C19 (Homo sapiens (Human), UniProt P33261); assay: Cytochrome oxidase P450 inhibition study, CYP2C19; type: in vitro ADME; settings: human liver microsomes; read-out: IC50 2C19
Protocol: (§1) LC-MS/MS methods were used to evaluate the inhibitory effects of compounds on CYP2C19, 2D6 and 3A4 subtypes. In this method, the test compound was mixed with a solution of human liver microsomes containing CYP model substrates, and incubated together under the addition of NADPH, then the inhibitory IC50 of the compound on CYP2C19, 2D6 and 3A4 was calculated by measuring the amount of metabolites of the model substrate in the reaction solution. The specific experimental method is as follows:
Compounds to be tested were prepared as stock solutions at 10 mM concentration with DMSO and then diluted to 4 mM with acetonitrile solution. At the same time, the corresponding reference inhibitor solutions for CYP subtypes were prepared, for example, the reference inhibitor was Ketoconazole, then these two compounds were prepared separately ([…] of inhibitor DMSO stock solution+[…] of acetonitrile), and the samples prepared under the above conditions were at 400× concentration. Then, the above solution was 3-fold diluted with DMSO/acetonitrile mixture (v/v: 40/60) to prepare the final test solution, and seven concentration points were set for each test compound, and the initial test final concentration was 10 μM. […]
[…] of human liver microsome solution (0.2 mg/mL) was added to each well containing the test compound in the 96-well plate, and then 2 mL of the final test sample of test compounds prepared by serial dilution as described above was added thereto; for each well corresponding to the reference inhibitors, […] of human liver microsome solution (0.2 mg/mL) and 1 mL of the final test sample were added. […] The inhibition rate was determined by comparing the amount of model substrate metabolites at each test concentration without test substance addition, in the GraphPad Prism 5.0 software, the logarithm of the test concentration was used as the abscissa and the inhibition rate was used as the ordinate to perform a linear regression (Sigmoidal (non-linear) dose-response model) analysis to obtain the IC50 value of the test compound.

CYP3A4 = CYP3A4 (Homo sapiens (Human), UniProt P08684); assay: Cytochrome oxidase P450 inhibition study, CYP3A4; type: in vitro ADME; settings: human liver microsomes
Protocol: as §1
Compounds to be tested were prepared as stock solutions at 10 mM concentration with DMSO and then diluted to 4 mM with acetonitrile solution. At the same time, the corresponding reference inhibitor solutions for CYP subtypes were prepared, for example, the reference inhibitor was Ketoconazole, then these two compounds were prepared separately ([…] of inhibitor DMSO stock solution+[…] of acetonitrile), and the samples prepared under the above conditions were at 400× concentration. Then, the above solution was 3-fold diluted with DMSO/acetonitrile mixture (v/v: 40/60) to prepare the final test solution, and seven concentration points were set for each test compound, and the initial test final concentration was 10 μM. NADPH, CYP enzyme model substrate and human liver microsome solution were diluted to appropriate concentrations with pre-warmed potassium phosphate buffer (0.1 M, pH 7.4), respectively. The human liver microsome solution was purchased from BD Gentest (20 mg/mL, Corning, article number #452161).
[…] of human liver microsome solution (0.2 mg/mL) was added to each well containing the test compound in the 96-well plate, and then 2 mL of the final test sample of test compounds prepared by serial dilution as described above was added thereto; for each well corresponding to the reference inhibitors, […] of human liver microsome solution (0.2 mg/mL) and 1 mL of the final test sample were added. […] of the prepared corresponding model substrate was dispensed into a 96-well plate, and the microsome solution was mixed evenly, then 30 mL of the test compound/reference inhibitor-human liver microsome mixture was taken and transferred to the 96-well plate containing the substrate, and the mixture was mixed well and preheated at 37° C. for 5 minutes, then […] of 8 mM NADPH solution preheated at 37° C. was added thereto to start the reaction. A duplicate well control and a blank control without the addition of test substances were set at the same time. The 96-well plate containing a total volume of […] of reaction solution was incubated at 37° C. After the incubation, 120 μL of cold acetonitrile solution containing internal standard was added to each well to terminate the reaction, and then the 96-well plate was shaked on a microplate shaker for 5 minutes (600 rpm/min), and put into a centrifuge and centrifuged for 20 minutes at 6000 rpm, 4° C. Then 40 μL of supernatant from each well was transferred to another 96-well plate, and 80 μL of ultrapure water was added to each well, put into a shaker and mixed for 5 minutes (600 rpm/min), and centrifuged at 6000 rpm, 4° C., for 20 minutes. Then LC-MS/MS detection was performed. The inhibition rate was determined by comparing the amount of model substrate metabolites at each test concentration without test substance addition, in the GraphPad Prism 5.0 software, the logarithm of the test concentration was used as the abscissa and the inhibition rate was used as the ordinate to perform a linear regression (Sigmoidal (non-linear) dose-response model) analysis to obtain the IC50 value of the test compound.

[1] = substrate Midazolam, read-out: IC50 3A4 (Midazolam)
[2] = substrate Testosterone, read-out: IC50 3A4 (Testosterone)

Sequence of CYP3A4 (P08684 whole entry): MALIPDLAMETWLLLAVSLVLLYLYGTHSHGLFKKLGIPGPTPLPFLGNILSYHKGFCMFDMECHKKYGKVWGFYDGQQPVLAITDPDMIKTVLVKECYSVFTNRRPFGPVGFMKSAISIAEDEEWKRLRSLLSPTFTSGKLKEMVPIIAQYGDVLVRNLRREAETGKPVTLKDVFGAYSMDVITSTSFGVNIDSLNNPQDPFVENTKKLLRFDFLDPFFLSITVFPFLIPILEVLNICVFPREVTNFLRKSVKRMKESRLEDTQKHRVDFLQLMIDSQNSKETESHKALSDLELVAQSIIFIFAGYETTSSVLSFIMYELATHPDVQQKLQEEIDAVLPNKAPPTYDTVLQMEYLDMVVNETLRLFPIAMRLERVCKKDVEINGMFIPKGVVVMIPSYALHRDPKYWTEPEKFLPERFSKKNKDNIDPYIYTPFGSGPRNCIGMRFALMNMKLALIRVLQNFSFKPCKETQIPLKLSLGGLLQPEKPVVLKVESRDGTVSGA
Sequence of ATR/ATRIP kinase (Q13535 whole entry): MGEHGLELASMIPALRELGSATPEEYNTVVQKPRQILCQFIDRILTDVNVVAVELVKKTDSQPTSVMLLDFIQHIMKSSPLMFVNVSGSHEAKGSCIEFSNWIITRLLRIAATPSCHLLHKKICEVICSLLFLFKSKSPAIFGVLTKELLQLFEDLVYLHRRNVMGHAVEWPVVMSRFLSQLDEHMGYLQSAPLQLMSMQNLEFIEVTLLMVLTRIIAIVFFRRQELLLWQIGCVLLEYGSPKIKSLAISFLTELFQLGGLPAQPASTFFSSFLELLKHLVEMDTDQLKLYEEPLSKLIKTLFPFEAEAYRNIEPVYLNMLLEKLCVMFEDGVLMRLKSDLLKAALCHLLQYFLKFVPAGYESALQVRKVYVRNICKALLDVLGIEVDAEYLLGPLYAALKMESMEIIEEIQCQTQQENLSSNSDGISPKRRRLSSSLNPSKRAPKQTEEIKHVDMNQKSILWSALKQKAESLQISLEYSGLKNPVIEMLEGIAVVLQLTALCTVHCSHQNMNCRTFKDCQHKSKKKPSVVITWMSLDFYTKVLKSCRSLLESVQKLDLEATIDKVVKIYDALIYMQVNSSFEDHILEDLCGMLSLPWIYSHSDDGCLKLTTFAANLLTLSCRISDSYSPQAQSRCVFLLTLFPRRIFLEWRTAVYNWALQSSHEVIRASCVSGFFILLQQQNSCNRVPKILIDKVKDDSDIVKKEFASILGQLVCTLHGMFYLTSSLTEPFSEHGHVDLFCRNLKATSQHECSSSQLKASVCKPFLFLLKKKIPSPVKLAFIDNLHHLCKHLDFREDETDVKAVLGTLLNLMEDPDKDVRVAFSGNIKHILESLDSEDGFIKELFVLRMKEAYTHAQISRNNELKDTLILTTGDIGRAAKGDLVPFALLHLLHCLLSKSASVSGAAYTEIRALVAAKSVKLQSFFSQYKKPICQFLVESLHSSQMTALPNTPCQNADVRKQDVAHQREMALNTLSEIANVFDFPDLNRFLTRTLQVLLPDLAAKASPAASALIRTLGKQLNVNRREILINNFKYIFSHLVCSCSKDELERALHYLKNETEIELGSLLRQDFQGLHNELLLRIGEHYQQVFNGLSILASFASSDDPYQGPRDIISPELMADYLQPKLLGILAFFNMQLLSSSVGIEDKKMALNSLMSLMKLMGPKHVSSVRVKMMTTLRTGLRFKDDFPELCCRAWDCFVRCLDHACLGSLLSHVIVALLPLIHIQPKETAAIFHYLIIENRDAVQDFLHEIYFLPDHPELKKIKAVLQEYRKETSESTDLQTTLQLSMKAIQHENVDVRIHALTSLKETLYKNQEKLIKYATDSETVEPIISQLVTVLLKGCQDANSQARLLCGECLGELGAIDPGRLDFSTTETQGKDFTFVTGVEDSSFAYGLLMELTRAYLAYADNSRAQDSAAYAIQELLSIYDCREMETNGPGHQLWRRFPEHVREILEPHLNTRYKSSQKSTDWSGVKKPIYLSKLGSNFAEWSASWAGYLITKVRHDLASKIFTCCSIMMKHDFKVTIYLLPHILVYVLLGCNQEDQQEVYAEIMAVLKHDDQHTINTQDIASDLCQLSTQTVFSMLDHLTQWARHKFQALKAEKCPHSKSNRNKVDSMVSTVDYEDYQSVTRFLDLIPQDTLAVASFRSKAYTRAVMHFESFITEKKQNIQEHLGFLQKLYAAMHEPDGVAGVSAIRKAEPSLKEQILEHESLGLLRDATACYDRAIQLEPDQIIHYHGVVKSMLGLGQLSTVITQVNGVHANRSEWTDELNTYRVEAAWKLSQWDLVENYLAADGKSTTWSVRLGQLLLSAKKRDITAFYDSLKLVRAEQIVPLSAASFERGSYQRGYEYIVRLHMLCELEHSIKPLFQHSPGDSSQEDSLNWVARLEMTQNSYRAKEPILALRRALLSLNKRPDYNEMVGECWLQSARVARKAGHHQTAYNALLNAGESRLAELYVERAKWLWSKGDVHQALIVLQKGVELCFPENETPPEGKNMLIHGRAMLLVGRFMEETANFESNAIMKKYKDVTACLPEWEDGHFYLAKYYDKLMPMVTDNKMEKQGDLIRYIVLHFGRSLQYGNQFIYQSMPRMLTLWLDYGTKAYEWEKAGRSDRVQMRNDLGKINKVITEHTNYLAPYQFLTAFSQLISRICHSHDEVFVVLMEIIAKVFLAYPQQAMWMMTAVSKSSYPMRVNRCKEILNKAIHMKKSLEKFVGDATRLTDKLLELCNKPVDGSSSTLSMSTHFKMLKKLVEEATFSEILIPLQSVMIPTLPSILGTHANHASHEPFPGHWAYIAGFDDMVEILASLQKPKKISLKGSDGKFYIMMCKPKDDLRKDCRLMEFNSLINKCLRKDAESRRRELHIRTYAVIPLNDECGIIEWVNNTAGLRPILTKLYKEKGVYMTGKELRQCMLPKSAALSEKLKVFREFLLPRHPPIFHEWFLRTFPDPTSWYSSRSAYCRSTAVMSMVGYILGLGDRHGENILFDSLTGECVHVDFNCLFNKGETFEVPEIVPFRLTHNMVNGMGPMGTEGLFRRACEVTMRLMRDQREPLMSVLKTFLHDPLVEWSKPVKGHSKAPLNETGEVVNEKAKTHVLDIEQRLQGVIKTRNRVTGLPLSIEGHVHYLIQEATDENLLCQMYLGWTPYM
Sequence of ATR/ATRIP kinase (Q8WXE1 whole entry partner): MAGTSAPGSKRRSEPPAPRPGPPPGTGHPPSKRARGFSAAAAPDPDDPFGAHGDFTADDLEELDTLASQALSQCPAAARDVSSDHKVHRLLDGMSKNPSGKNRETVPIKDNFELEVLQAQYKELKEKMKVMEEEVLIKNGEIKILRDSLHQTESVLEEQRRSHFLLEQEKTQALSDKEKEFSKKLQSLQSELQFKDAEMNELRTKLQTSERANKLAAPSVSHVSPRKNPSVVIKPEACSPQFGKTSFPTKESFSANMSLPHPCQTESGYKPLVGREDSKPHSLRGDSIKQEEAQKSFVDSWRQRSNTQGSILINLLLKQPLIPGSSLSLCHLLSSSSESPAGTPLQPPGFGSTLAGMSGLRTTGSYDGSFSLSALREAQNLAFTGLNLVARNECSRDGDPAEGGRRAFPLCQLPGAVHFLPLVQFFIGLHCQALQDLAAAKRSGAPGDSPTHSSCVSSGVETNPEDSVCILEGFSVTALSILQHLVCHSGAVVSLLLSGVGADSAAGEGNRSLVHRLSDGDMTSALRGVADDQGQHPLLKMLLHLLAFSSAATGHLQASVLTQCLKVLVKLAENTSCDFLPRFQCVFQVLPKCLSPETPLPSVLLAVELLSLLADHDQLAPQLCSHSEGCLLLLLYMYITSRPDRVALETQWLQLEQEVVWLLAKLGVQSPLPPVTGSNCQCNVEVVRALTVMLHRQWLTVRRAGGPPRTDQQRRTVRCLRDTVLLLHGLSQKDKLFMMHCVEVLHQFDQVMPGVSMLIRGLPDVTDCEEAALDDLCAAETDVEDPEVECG
Sequence of CYP2C19 (P33261 whole entry): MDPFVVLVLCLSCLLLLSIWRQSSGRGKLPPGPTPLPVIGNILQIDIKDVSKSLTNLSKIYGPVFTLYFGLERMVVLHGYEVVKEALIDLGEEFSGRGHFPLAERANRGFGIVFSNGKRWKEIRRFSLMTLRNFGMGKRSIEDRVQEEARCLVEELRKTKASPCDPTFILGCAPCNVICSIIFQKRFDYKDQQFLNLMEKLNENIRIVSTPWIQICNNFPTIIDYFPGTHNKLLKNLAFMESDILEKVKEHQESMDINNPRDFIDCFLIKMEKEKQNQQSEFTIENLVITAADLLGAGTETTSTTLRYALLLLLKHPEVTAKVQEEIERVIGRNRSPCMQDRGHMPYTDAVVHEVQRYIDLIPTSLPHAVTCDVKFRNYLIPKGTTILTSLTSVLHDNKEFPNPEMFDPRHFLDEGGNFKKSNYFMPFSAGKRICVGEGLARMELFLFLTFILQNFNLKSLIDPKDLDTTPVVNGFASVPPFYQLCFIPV

Row | IC50 (ATR/ATRIP kinase) [µM] | IC50 (CYP2C19) [µM] | IC50 (CYP3A4; [1]) [µM] | IC50 (CYP3A4; [2]) [µM] | SMILES
1 | 0.00069 | > 10 | > 10 | > 10 | C[C@@H]1COCCN1c1nc2c(cnn2-c2cc[nH]n2)c2c1CCN2S(C)(=O)=O [Compound 2, (R)-3-methyl-4-(1-(methylsulfonyl)-6-(1H-pyrazol-3-yl)-1,2,3,6-tetrahydropyrazolo[3,4-b]pyrrolo[2,3-d]pyridin-4-yl)morpholine trifluoroacetate]
2 | 0.0012 | > 10 | > 10 | > 10 | C[C@@H]1COCCN1c1nc2c(cnn2-c2cc[nH]n2)c2c1ccn2S(C)(=O)=O [Compound 1, (R)-3-methyl-4-(1-(methylsulfonyl)-6-(1H-pyrazol-3-yl)-1,6-dihydropyrazolo[3,4-b]pyrrolo[2,3-d]pyridin-4-yl)morpholine trifluoroacetate]
